Assay [1] has as its system HCT116 cells. As to the kind of experiment: Mitotic arrest / mitotic index by phase-contrast microscopy. Type of assay: cell-based, human. To be noted: HCT116, 24 h. How it is done:
Disruption of cell cycle progression is considered one of the most common cytotoxic mechanisms of anticancer drugs. Moreover, the antimitotic effect of BP-M345 (2) has been previously reported. Therefore, compounds 6, 7, and 13 were tested for their capability to induce cell cycle arrest. HCT116 cells were exposed for 24 h to the compounds and then analyzed using phase contrast microscopy for morphological changes. Untreated and dimethyl sulfoxide (DMSO; solvent)-treated cells were used as negative controls. Cell exposure to nocodazole, an antimitotic agent, was used as a positive control. […] We thus calculated the mitotic index (MI), and observed a significant increase in MI in 7-treated cells (22.76 ± 4.30%) compared to the untreated (12.68 ± 1.98%) or DMSO-treated (12.81 ± 1.45%) (Figure 4c).
A total of 1.2 × 10^5 HCT-116 cells were grown in six-well dishes and treated for 24 h with 3.26 µM of compound 7. Cells treated with 1 µM nocodazole were used as a positive control for antimitotic activity. Untreated cells and cells treated with DMSO were included to exclude the cytotoxicity of the compound solvent. Mitotic index, and the percentage of mitotic cells over the total cell population were determined via cell-rounding under phase-contrast microscopy from at least ten random microscope fields.
For phase contrast microscopy images, a Nikon TE 2000-U microscope (Nikon, Amsterdam, The Netherlands) with a 10× objective was used, coupled to a DXM1200F digital camera with Nikon ACT-1 software (Melville, NY, USA). For fluorescence images, an Axio Observer Z.1 SD microscope (Carl Zeiss, Germany) was used, coupled to an AxioCam MR3, with the Plan Apochromatic 63×/NA 1.4 objective. The images were processed using ImageJ, version 1.51.

Assay [2] concerns A375-C5. Put plainly: Sulforhodamine B (SRB) growth inhibition assay, melanoma cells. Type of assay: cell-based. To be noted: Homo sapiens, 48 h. As to the method:
(§1) A sulforhodamine B (SRB) assay was performed to evaluate the in vitro growth inhibitory activity of all synthesized hybrids, as well as intermediates in the human tumor cell lines of melanoma (A375-C5), breast adenocarcinoma (MCF-7), and colorectal carcinoma (HCT116), as well as on the non-tumor Human Pulmonary Alveolar Epithelial cell line (HPAEpiC). The concentration inducing 50% cell growth inhibition (GI50), was calculated. […] The overall results prompt us to further investigate the mechanism behind the cytotoxic activities of compounds 6, 7, and 13 in colorectal tumor cells. Moreover, in silico studies were performed, aiming to screen for drug-likeness.
(§2) A375-C5 (melanoma) and MCF-7 (breast adenocarcinoma) cell lines were obtained from the European Collection of Cell Culture, UK, and were grown in RPMI-1640 medium (Roswell Park Memorial Institute, Biochrom, Cambridge, UK) with 5% inactivated FBS (fetal bovine serum, Biochrom). HCT-116 (colon adenocarcinoma) cells were grown in DMEM medium (Dulbecco’s Modified Eagle’s, Biochrom) with 5% inactivated FBS. The non-tumor human pulmonary alveolar epithelial cells (HPAEpiC) were obtained from ScienCell Research Laboratories and grown in DMEM medium supplemented with 10% FBS and 1% non-essential amino acids (Sigma-Aldrich Co., Saint Louis, MO, USA). All cell lines were maintained in a humidified incubator (Hera Cell, Heraeus, Hanau, Germany) at 37 °C and with 5% CO2, and cell viability was regularly monitored using the exclusion trypan blue dye.
(§3) A total of 5.0 × 10^4 A375-C5, MCF-7, and HCT-116 cells, or 6.0 × 10^4 HPAEpiC cells were seeded in 96-well plates and incubated at 37 °C and 5% CO2 to allow for cell attachment. After 24 h, cells were treated with two-fold serial dilutions of test compounds (0–150 µM), or with DMSO as the compound solvent. In parallel, cells in a time-zero (T0) plate, without treatment, were fixed with 50% (m/v) trichloroacetic acid (TCA, Merck Millipore, Darmstadt, Germany), for 1 h at 4 °C, and then washed with distilled water and left to dry. Forty-eight hours after compound treatment, cells were fixed with 50% TCA and stained with SRB (Sigma-Aldrich Co., Ltd., Gillingham, UK) for 30 min at room temperature, followed by 5 rounds of washing with 1% (v/v) acetic acid (Merck Milli-pore, Darmstadt, Germany). SRB–protein complexes were then solubilized with […] Tris buffer (Sigma-Aldrich Co., Ltd., Gillingham, UK) for 30 min, and the absorbance was measured at 515 nm in a microplate reader (Biotek Synergy 2, BioTek Instruments, Inc., Winooski, VT, USA). A dose-response curve was obtained for each cell line, and the concentration that caused 50% cell growth inhibition (GI50) was calculated.

Assay [3] deals with HCT116 cells. As to the kind of experiment: Immunofluorescence of mitotic spindle morphology (anti-α-tubulin). In kind it is cell-based, human. The conditions noted are these: HCT116, GI50 of the compound, 24 h. As to the method:
To understand the mechanism behind the induction of mitotic arrest after treatment with the compound 7, we treated HCT116 cells with the GI50 of the compound. Twenty-four hours later, we performed an immunofluorescence assay using an anti-α-tubulin antibody to visualize the spindle morphology.
Cells were treated as for DAPI staining. After methanol fixation, cells were blocked with 10% FBS in PBST (0.05% Tween-20 in PBS) for 30 min at room temperature, followed by 1 h incubation with a primary antibody (mouse anti-α-tubulin, 1:2500, Sigma-Aldrich Co., Ltd., Gillingham, UK) diluted in 5% FBS in PBST. Then, cells were washed three times in PBST and incubated with an Alexa Fluor 488 conjugated secondary antibody (1:1500, Molecular Probes, Eugene, OR, USA). DNA was stained with DAPI.

Assay [4] deals with HCT116 (HCT116 p53+/+). As to the kind of experiment: SRB growth inhibition assay, colorectal carcinoma cells. In kind it is cell-based. To be noted: Homo sapiens, HCT-116. How it is done:
as §1, §2, §3

The subject of assay [5] is HCT116 cells. Put plainly: Apoptosis detection via flow cytometry (Annexin V-FITC/PI). Type of assay: cell-based, human. To be noted: HCT116, 48 h, vs untreated or DMSO. As to the method:
Double labeling with annexin V-FITC and propidium iodide dyes was used to detect cells going through apoptotic events, using a flow cytometer in order to obtain insights into the mechanism by which compounds 6, 7, and 13 generate antiproliferative activity against colorectal carcinoma cells. For that, HCT116 cells were exposed to each compound for 48 h.
To evaluate apoptotic cell death, the “Annexin V-FITC Apoptosis Detection Kit” (eBioscience, Vienna, Austria) was used according to the manufacturer’s instructions. Briefly, 1.2 × 10^5 cells/well were seeded into 6-well plates, and 24 h later, cells were treated with compounds 6, 7, and 13. After 48 h, floating and adherent cells were collected, pelleted via centrifugation (1000 rpm, 5 min), and suspended in binding buffer. Annexin V-FITC was added and incubated for 10 min, protected from light. Cells were washed and resuspended in binding buffer, and 20 μg/mL of propidium iodide (PI) was added. Fluorescence was assessed using the BD Accuri™ C6 Plus flow cytometer (BD Biosciences, Qume Drive, San Jose, CA, USA), and the data were analyzed with the BD Accuri TM C6 Plus software (version 1.0.27.1, San Jose, CA, USA). At least 20,000 events per sample were collected.

Read-outs that look alike come from different tables or passages of the source.

As to `CCCc1c(OCCNC(=O)/C=C/c2cc(OC)c(OC)c(OC)c2)ccc(C(=O)/C=C/c2cc(OC)c(OC)c(OC)c2)c1O` [Compound 7, (E)-N-(2-(3-hydroxy-2-propyl-4-((E)-3-(3,4,5-trimethoxyphenyl)acryloyl)phenoxy)ethyl)-3-(3,4,5-trimethoxyphenyl)acrylamide], the “Mitotic index (MI)” value in assay [1] (at GI50 (3.26 µM), untreated 12.68 ± 1.98%) stood at 22.76 ± 4.30%. In assay [1] (phase contrast microscopy), the “Accumulation of bright and rounded (mitotic) cells” value is “accumulation of bright and rounded cells”. Moreover, the GI50 in assay [2] is 32.1 ± 1.27 µM; in assay [4] (SRB, 48 h, read-out: GI50 HCT116) it was 3.26 ± 1.39 µM; in assay [4] (Table 2, 48 h, read-out: GI50 HCT116 p53+/+), 3.26 ± 1.39 µM. For the same molecule, the “Cells with collapsed (monopolar-like) mitotic spindles” value in assay [3] amounted to 91.41 ± 4.87%. Besides, the “Percentage of bipolar spindles” value in assay [3] is 6.57 ± 2.13%. Moreover, the “Apoptosis induction (Annexin V-positive cells)” value in assay [5] was “induces apoptotic tumor cell death”.

For the origin of these results see PMC10303900, “Discovery of a New Chalcone-Trimethoxycinnamide Hybrid with Antimitotic Effect: Design, Synthesis, and Structure—Activity Relationship Studies” (Pharmaceuticals, 2023).
